Data as given in US20080226596A1, “Therapeutic compositions and methods useful in treating hepatitis” (priority 2006, published 2008).

Tests used:
NB4 cells = assay: NB4 Annexin V/propidium iodide assay; type: cell-based, human; conditions: 250 μg/ml, 6 days
Description: Annexin V staining of exposed membrane phospholipid phosphatidylserine (PS) was done using the Annexin V assay kit (Pharmingen, San Diego, Calif.). […] Cells were then washed in PBS twice and stained in binding buffer (10 mM Hepes, pH 7.4; 140 mM NaCl; 2.5 mM CaCl2) containing Annexin V-FITC and propidium iodide for 15 min. The reaction was stopped by adding 10 volumes of binding buffer and analyzed by FACS (Becton Dickinson Facsvantage).

[1] = Toxicity/tolerance of sodium stibogluconate in nude mice; type: in vivo
Description: The dosage of sodium stibogluconate corresponds to approximately 440 mg Sb/kg body weight (average mouse body weight 27 g), substantially higher than the standard therapeutic dose of 20 mg Sb/kg and the high dose (143 mg Sb/kg) that was clinically used by accident without serious toxicity. This dose of sodium stibogluconate was based on a previous observation in a pilot study that mice could tolerate daily dose of 20 mg Sb (approximately 700-800 mg Sb/kg). […] In light of the relatively rapid rate of clearance of the drug in vivo, 440 mg Sb/kg dosage was used to ensure the detection of the effectiveness of the drug for this initial study.
As discussed above, the dosage of sodium stibogluconate used for the treatment of nude mice was 12 mg Sb/mouse, s.c., daily (or approximately 440 mg/kg body weight). This dosage is much higher than the standard dose for leishmaniasis (20 mg Sb/kg, daily). As an initial step to assess the toxicity of such a high dosage of sodium stibogluconate in nude mice, the effect of sodium stibogluconate on the viability and body weights of WM9 xenografts nude mice during the 25 day period of the study was determined.

C42 cells = assay: C42 prostate cancer cell growth; type: cell-based, human
Description: For cell proliferation assays, cells were grown in 10% FCS culture medium containing various amounts of IFNs and/or sodium stibogluconate in 96 well plates and cultured at 37° C. for 3 or 6 days as indicated. The numbers of viable cells in proliferation assays were determined by MTT assays as described in Phatak et al., J. Immunol. 167, 3391 (2001).

PRL-3 = target: T1, PRL-3 (Homo sapiens, UniProt O75365); assay: In vitro PTPase assay, recombinant PRL-3; type: biochemical; conditions: 10 μg/ml, pre-incubation 30 or 60 minutes
T1 construct: GST (N); made in house; host or cells: DHSa (DH5a) bacteria
T1 sequence (O75365 whole entry): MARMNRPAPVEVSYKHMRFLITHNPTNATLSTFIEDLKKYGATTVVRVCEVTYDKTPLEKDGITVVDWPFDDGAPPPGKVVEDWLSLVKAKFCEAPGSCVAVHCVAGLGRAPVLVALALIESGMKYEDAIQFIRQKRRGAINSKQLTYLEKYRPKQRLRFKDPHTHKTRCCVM
Text: Sodium stibogluconate, suramin, sodium orthovanadate and GST fusion protein of SHP-1 have been described previously (Pathak et al., J. Imumol. 167, 3391 (2001)). Meglumine antimonate was obtained from Aventis. cDNAs of human PRL-1, PRL-2 and PRL-3 coding region were derived by RT-PCR from H9 cells (Safai, et al., Lancet 1, 1438 (1984)) and inserted in frame into the pGEX vector. cDNA of PRL-1R86 was generated by recombinant DNA technique using PRL-1 cDNA as template following established procedures (Jiao, et al., Mol. Cell. Biol. 16, 6985 (1996)). […]
In vitro PTPase assays were used to determine the effects of compounds on recombinant PTPases, following established procedures using a synthetic phosphotyrosine peptide or DiFMUP as the substrate (Pathak et al., J. Imumol. 167, 3391 (2001)). […] PTPase activity of individual reactions was measured by adding 100 µL of malachite green solution (UBI) and then quantifying the amounts of free phosphate cleaved by the PTPase from the peptide substrate by spectrometry (OD660 nm). […] Relative PTPase activities were calculated based on the formula: (PTPase activity in the presence of an inhibitory compound/PTPase activity in the absence of the compound)× 100%. […]

SMILES: O.O.O.O.O.O.O.O.O.O=C([O-])[C@@H]1[O][Sb]2([O-])([O][Sb]34([OH])[O][C@H]([C@H](O)CO)[C@H]([O]3)[C@H](C(=O)[O-])[O]4)[O][C@H]([C@H](O)CO)[C@@H]1[O]2.[Na+].[Na+].[Na+] [sodium stibogluconate]
- Annexin V staining of NB4 cells (NB4 cells): stained positive by Annexin V
- tolerability ([1]; 12 mg Sb daily (440 mg Sb/kg daily)): well tolerated with no serious side effects
- tolerated daily dose in mice ([1]; pilot study): 20 mg Sb
- tolerated daily dose in mice per body weight ([1]; pilot study): 700-800 mg Sb/kg
- internal organs on dissection ([1]; two mice from each group): no apparent abnormality of the internal organs
- survival of WM9-inoculated nude mice ([1]; until day 25, 4 mice/group): survived
- effect on C42 cells (C42 cells): highly resistant
- inactivation of PRL-3 (PRL-3): nearly complete inactivation
